Source: patent US8492371B2, “Compounds as cannabinoid receptor ligands” (priority 2009, dated 2013)
pKi: −log10 of the molar value. Where two headings read alike, the source gives them in different places.

What was measured:
rat CB2 receptors = biological target: T1, rat CB2 receptors (Rattus norvegicus, UniProt Q9QZN9); test: Rat CB2 radioligand binding assay ([3H]CP-55,940 competition)
T1 construct: expressed in transfected cells; host or cells: HEK293
T1 sequence (Q9QZN9 1-360): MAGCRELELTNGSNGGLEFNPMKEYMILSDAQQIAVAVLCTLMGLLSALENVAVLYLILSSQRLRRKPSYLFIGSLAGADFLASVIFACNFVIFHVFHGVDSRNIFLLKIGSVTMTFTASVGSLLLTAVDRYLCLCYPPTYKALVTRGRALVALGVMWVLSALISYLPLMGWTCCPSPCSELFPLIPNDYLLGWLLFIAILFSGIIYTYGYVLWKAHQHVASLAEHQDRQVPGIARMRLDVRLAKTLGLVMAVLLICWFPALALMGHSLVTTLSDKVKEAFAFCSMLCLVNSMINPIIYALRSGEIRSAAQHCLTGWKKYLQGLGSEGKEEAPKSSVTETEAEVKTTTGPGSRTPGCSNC
Outline: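 Membranes from HEK293 cells stably expressing rat CB2 (20 μg/well) incubated 45 min at 30 °C with 0.5 nM [3H]CP-55,940 and five competitor concentrations in Tris/EDTA/MgCl2 buffer with 0.5 mg/mL BSA, pH 7.4. Filtration and scintillation counting; nonspecific binding with 10 μM unlabeled CP-55,940.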

human CB2 receptors = biological target: T2, human CB2 receptors (Homo sapiens, UniProt P34972); test: Human CB2 radioligand binding assay ([3H]CP-55,940 competition)
T2 construct: expressed in transfected cells; host or cells: HEK293
T2 sequence (P34972 whole entry): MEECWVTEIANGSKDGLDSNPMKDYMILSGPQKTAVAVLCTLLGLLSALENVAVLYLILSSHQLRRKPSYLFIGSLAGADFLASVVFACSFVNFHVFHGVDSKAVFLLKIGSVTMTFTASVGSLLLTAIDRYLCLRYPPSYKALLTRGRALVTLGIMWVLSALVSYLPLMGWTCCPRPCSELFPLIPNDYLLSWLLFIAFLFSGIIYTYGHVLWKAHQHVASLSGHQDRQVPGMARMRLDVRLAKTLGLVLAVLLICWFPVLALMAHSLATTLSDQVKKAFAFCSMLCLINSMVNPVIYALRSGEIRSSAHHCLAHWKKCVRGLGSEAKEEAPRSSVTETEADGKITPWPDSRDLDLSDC
Outline: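 Membranes from HEK293 cells stably expressing human CB2 (5 μg/well) incubated 90 min at 30 °C with 0.5 nM [3H]CP-55,940 and five concentrations of displacer (0.01 nM–10 μM) in pH 7.4 Tris/EDTA/MgCl2 buffer with fatty acid free BSA. Bound radioactivity counted after filtration; nonspecific binding defined with 10 μM unlabeled CP-55,940.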

[1] = HEK293 membranes, 0.5 nM [3H]CP-55,940, read-out: human CB2 Ki

Compound: COc1c(F)cc(F)cc1C(=O)/N=c1\cc(C(C)(C)C)n(C)n1C[C@H]1CCCO1 [Example 55, N-{(3E)-5-tert-butyl-1-methyl-2-[(2R)-tetrahydrofuran-2-ylmethyl]-1,2-dihydro-3H-pyrazol-3-ylidene}-3,5-difluoro-2-methoxybenzamide]
- pKi (rat CB2 receptors; HEK293 membranes, 0.5 nM [3H]CP-55,940, read-out: rat CB2 Ki): 6.84
- pKi (human CB2 receptors; [1]): 6.82

Compound: COCCOc1ccc(Br)cc1C(=O)/N=c1\cc(C(C)(C)C)n(C)n1C[C@H]1CCCO1 [Example 58, 5-bromo-N-{(3E)-5-tert-butyl-1-methyl-2-[(2R)-tetrahydrofuran-2-ylmethyl]-1,2-dihydro-3H-pyrazol-3-ylidene}-2-(2-methoxyethoxy)benzamide]
- pKi (rat CB2 receptors): 7.16
- pKi (human CB2 receptors): 7.51

Compound: Cn1c(C(C)(C)C)c/c(=N\C(=O)c2cc(Br)ccc2OCCF)n1C[C@H]1CCCO1 [Example 59, 5-bromo-N-{(3E)-5-tert-butyl-1-methyl-2-[(2R)-tetrahydrofuran-2-ylmethyl]-1,2-dihydro-3H-pyrazol-3-ylidene}-2-(2-fluoroethoxy)benzamide]
- pKi (rat CB2 receptors): 7.57
- pKi (human CB2 receptors): 7.55

Compound: Cn1c(C(C)(C)C)c/c(=N\C(=O)c2cc(Br)cc3c2OCC3)n1C[C@H]1CCCO1 [Example 60, 5-bromo-N-{(3E)-5-tert-butyl-1-methyl-2-[(2R)-tetrahydrofuran-2-ylmethyl]-1,2-dihydro-3H-pyrazol-3-ylidene}-2,3-dihydro-1-benzofuran-7-carboxamide]
- pKi (rat CB2 receptors): 7.34
- pKi (human CB2 receptors): 7.18

Compound: COc1ccc(Cl)cc1C(=O)/N=c1\cc(C(C)(C)C)ccn1C[C@H]1CCCO1 [Example 61, N-[(2E)-4-tert-butyl-1-[(2R)-tetrahydrofuran-2-ylmethyl]pyridin-2(1H)-ylidene]-5-chloro-2-methoxybenzamide]
- pKi (rat CB2 receptors): 7.89
- pKi (human CB2 receptors; [1]): 6.99

Compound: COc1ccc(C(F)(F)F)cc1C(=O)/N=c1\cc(C(C)(C)C)ccn1C[C@H]1CCCO1 [Example 62, N-[(2E)-4-tert-butyl-[(2R)-tetrahydrofuran-2-ylmethyl]pyridin-2(1H)-ylidene]-2-methoxy-5-(trifluoromethyl)benzamide]
- pKi (rat CB2 receptors): 8.40
- pKi (human CB2 receptors): 7.70

Compound: COc1ccc(C(F)(F)F)cc1C(=O)/N=c1\cc(C(C)(C)C)n(C)n1CC1CCCCO1 (centres unmarked) [Example 63, N-[(3E)-5-tert-butyl-1-methyl-2-(tetrahydro-2H-pyran-2-ylmethyl)-1,2-dihydro-3H-pyrazol-3-ylidene]-2-methoxy-5-(trifluoromethyl)benzamide]
- pKi (rat CB2 receptors): 7.70
- pKi (human CB2 receptors): 7.44

Compound: COc1ccc(C(F)(F)F)cc1C(=O)/N=c1\cc(C(C)(C)C)n(C)n1CC1CC[C@H](C)O1 (some centres unmarked) [Example 65, N-((3E)-5-tert-butyl-1-methyl-2-{[(55)-5-methyltetrahydrofuran-2-yl]methyl}-1,2-dihydro-3H-pyrazol-3-ylidene)-2-methoxy-5-(trifluoromethyl)benzamide]
- pKi (rat CB2 receptors): 8.24
- pKi (human CB2 receptors): 7.19

Compound: COc1ccc(C(F)(F)F)cc1C(=O)/N=c1\oc(C(C)(C)C)cn1C[C@H]1CCCO1 [Example 66, N-[(2Z)-5-tert-butyl-3-[(2R)-tetrahydrofuran-2-ylmethyl]-1,3-oxazol-2(3 H)-ylidene]-2-methoxy-5-(trifluoromethyl)benzamide]
- pKi (rat CB2 receptors): 9.10
- pKi (human CB2 receptors): 8.68

Compound: CC1CCC(NC(=O)/N=c2\sc(C(C)(C)C)nn2C[C@H]2CCCO2)CC1 (stereo partly drawn) [Example 67, N-[(2Z)-5-tert-butyl-3-[(2R)-tetrahydrofuran-2-ylmethyl]-1,3,4-thiadiazol-2(3 H)-ylidene]-N′-(4-methylcyclohexyl)urea]
- pKi (rat CB2 receptors): 8.00
- pKi (human CB2 receptors): 7.80

Compound: CC(C)(C)c1nn(C[C@H]2CCCO2)/c(=N/C(=O)NC2CCCc3ccccc32)s1 (stereo partly drawn) [Example 73, N-[(2Z)-5-tert-butyl-3-[(2R)-tetrahydrofuran-2-ylmethyl]-1,3,4-thiadiazol-2(3 H)-ylidene]-N′-1,2,3,4-tetrahydronaphthalen-1-ylurea]
- pKi (rat CB2 receptors): 8.09
- pKi (human CB2 receptors): 7.35

Compound: CC(CCc1ccccc1)NC(=O)/N=c1\sc(C(C)(C)C)nn1C[C@H]1CCCO1 (stereo partly drawn) [Example 79, N-[(2Z)-5-tert-butyl-3-[(2R)-tetrahydrofuran-2-ylmethyl]-1,3,4-thiadiazol-2(3 H)-ylidene]-N′-(1-methyl-3-phenylpropyl)urea]
- pKi (rat CB2 receptors): 7.96
- pKi (human CB2 receptors): 7.49

Compound: CNC(=O)[C@@H](NC(=O)/N=c1\sc(C(C)(C)C)nn1C[C@H]1CCCO1)C(C)(C)C [Example 82, N^2-({[(2Z)-5-tert-butyl-3-[(2R)-tetrahydrofuran-2-ylmethyl]-1,3,4-thiadiazol-2(3H)-ylidene]amino}carbonyl)-N^1,3-dimethyl-L-valinamide]
- pKi (rat CB2 receptors): 8.00
- pKi (human CB2 receptors): 8.42

Compound: CC(C)[C@@H](CO)NC(=O)/N=c1\sc(C(C)(C)C)nn1C[C@H]1CCCO1 [Example 84, N-[(2Z)-5-tert-butyl-3-[(2R)-tetrahydrofuran-2-ylmethyl]-1,3,4-thiadiazol-2(3 H)-ylidene]-N′-[(1S)-1-(hydroxymethyl)-2-methylpropyl]urea]
- pKi (rat CB2 receptors): 7.14
- pKi (human CB2 receptors): 6.70

Compound: COc1ccc(C(F)(F)F)cc1C(=O)/N=c1\cc(C(C)(C)C)n(C)n1CC1CCOC1 (centres unmarked) [Example 85, N-[(3E)-5-tert-butyl-1-methyl-2-(tetrahydrofuran-3-ylmethyl)-1,2-dihydro-3H-pyrazol-3-ylidene]-2-methoxy-5-(trifluoromethyl)benzamide]
- pKi (rat CB2 receptors): 7.89
- pKi (human CB2 receptors): 7.06

Compound: Cc1ccc(C(F)(F)F)cc1C(=O)/N=c1\cc(C(C)(C)C)n(C)n1C[C@H]1CCCO1 [Example 86]
- pKi (rat CB2 receptors): 8.48
- pKi (human CB2 receptors): 7.96

Compound: Cn1c(C(C)(C)C)c/c(=N\C(=O)c2cc(C(F)(F)F)ccc2Br)n1C[C@H]1CCCO1 [Example 88, 2-bromo-N-{(3E)-5-tert-butyl-1-methyl-2-[(2R)-tetrahydrofuran-2-ylmethyl]-1,2-dihydro-3H-pyrazol-3-ylidene}-5-(trifluoromethyl)benzamide]
- pKi (rat CB2 receptors): 8.27
- pKi (human CB2 receptors): 7.70

Compound: COC/C=C/c1ccc(C(F)(F)F)cc1C(=O)/N=c1\cc(C(C)(C)C)n(C)n1C[C@H]1CCCO1 [Example 89, N-{(3E)-5-tert-butyl-1-methyl-2-[(2R)-tetrahydrofuran-2-ylmethyl]-1,2-dihydro-3H-pyrazol-3-ylidene}-2-[(1E)-3-methoxyprop-1-enyl]-5-(trifluoromethyl)benzamide]
- pKi (rat CB2 receptors): 8.24
- pKi (human CB2 receptors): 8.01

Compound: COCCCc1ccc(C(F)(F)F)cc1C(=O)/N=c1\cc(C(C)(C)C)n(C)n1C[C@H]1CCCO1 [Example 90, N-{(3E)-5-tert-butyl-1-methyl-2-[(2R)-tetrahydrofuran-2-ylmethyl]-1,2-dihydro-3H-pyrazol-3-ylidene}-2-(3-methoxypropyl)-5-(trifluoromethyl)benzamide]
- pKi (rat CB2 receptors): 8.52
- pKi (human CB2 receptors): 8.46

Compound: COc1ccc(Cl)cc1C(=O)/N=c1\sc(C(C)(C)C)nn1C[C@H]1COC(=O)N1 [Example 91, N-[(2Z)-5-tert-butyl-3-{[(4S)-2-oxo-1,3-oxazolidin-4-yl]methyl}-1,3,4-thiadiazol-2(3H)-ylidene]-5-chloro-2-methoxybenzamide]
- pKi (rat CB2 receptors): 7.52
- pKi (human CB2 receptors; [1]): 6.69

Compound: CC(C)=CCOc1ccc(C(F)(F)F)cc1C(=O)/N=c1\cc(C(C)(C)C)n(C)n1C[C@H]1CCCO1 [Example 93, N-{(3E)-5-tert-butyl-1-methyl-2-[(2R)-tetrahydrofuran-2-ylmethyl]-1,2-dihydro-3H-pyrazol-3-ylidene}-2-[(3-methylbut-2-enyl)oxy]-5-(trifluoromethyl)benzamide]
- pKi (rat CB2 receptors): 7.82
- pKi (human CB2 receptors): 7.77

Compound: Cn1c(C(C)(C)C)c/c(=N\C(=O)c2cc(C(F)(F)F)ccc2OCCC2(O)CCCC2)n1C[C@H]1CCCO1 [Example 94, N-{(3E)-5-tert-butyl-1-methyl-2-[(2R)-tetrahydrofuran-2-ylmethyl]-1,2-dihydro-3H-pyrazol-3-ylidene}-2-[2-(1-hydroxycyclopentyl)ethoxy]-5-(trifluoromethyl)benzamide]
- pKi (rat CB2 receptors): 8.48
- pKi (human CB2 receptors): 8.59

Compound: Cn1c(C(C)(C)C)c/c(=N\C(=O)c2cc(F)cc(C(F)(F)F)c2)n1C[C@H]1CCCO1 [Example 96, N-{(3E)-5-tert-butyl-1-methyl-2-[(2R)-tetrahydrofuran-2-ylmethyl]-1,2-dihydro-3H-pyrazol-3-ylidene}-3-fluoro-5-(trifluoromethyl)benzamide]
- pKi (rat CB2 receptors): 8.43
- pKi (human CB2 receptors): 7.89

Compound: CN1CC[C@H](Oc2ccc(C(F)(F)F)cc2C(=O)/N=c2\sc(C(C)(C)C)nn2C[C@H]2CCCO2)C1 [Example 97, N-[(2Z)-5-tert-butyl-3-[(2R)-tetrahydrofuran-2-ylmethyl]-1,3,4-thiadiazol-2(3 H)-ylidene]-2-{[(3S)-1-methylpyrrolidin-3-yl]oxy}-5-(trifluoromethyl)benazmide]
- pKi (rat CB2 receptors): 7.34
- pKi (human CB2 receptors): 7.20

Compound: CN1CC[C@H](Oc2ccc(C(F)(F)F)cc2C(=O)/N=c2\oc(C(C)(C)C)cn2C[C@H]2CCCO2)C1 [Example 98, N-[(2Z)-5-tert-butyl-3-[(2R)-tetrahydrofuran-2-ylmethyl]-1,3-oxazol-2(3 H)-ylidene]-2-{[(3S)-1-methylpyrrolidin-3-yl]oxy}-5-(trifluoromethyl)benzamide]
- pKi (rat CB2 receptors): 7.06
- pKi (human CB2 receptors; [1]): 6.58
